Results from patent publication US11524010B2, “Substituted quinazoline sulfonamides as thioredoxin interacting protein (TXNIP) inhibitors” (SOUTHERN RESEARCH INSTITUTE, priority 2017, dated 2022).

Columns and labels:
TXNIP = experiment: Inhibition of glucose-induced endogenous TXNIP expression in INS-1 cells (qRT-PCR); type: cell-based, Rat; conditions: Rattus norvegicus, INS1, 24 h, 25 mM glucose; for inhibition at 1.5 µM: 1.5 μM compound; for inhibition at 12.5 µM: 12.5 μM compound
Procedure: The Rat INS-1 cell line was obtained from UAB and maintained in RPMI-1640 (Invitrogen #11875) supplemented with 10% fetal bovine serum (FBS), 100 U/ml penicillin and […] streptomycin, 10 mM HEPES, 1 mM Sodium Pyruvate, 50 μM 2-Mercaptoethanol, and 11.1 mM Glucose in a humidified incubator with a 5% C02 atmosphere at 37° C. 4×10^4 cells per well were seeded to 96-well plate and incubated at 37° C. overnight. A subset of the cells were then cultured in medium with 5 mM Glucose for 24 hrs and then treated in medium with 25 mM glucose with or without compounds to be tested for another 24 hrs.
For the primary high throughput screening (HTS) assay, stably transfected, monoclonal INS-1 cells were split using Trypsin (2 ml per T75 flask) and seeded at a density of 10^4/well in a 384-well plate and incubated overnight at low, 5 mM glucose. The next day, the medium was changed to high glucose (25 mM) or high glucose plus the small molecules to be tested and luciferase assays were performed 24 h later. […] For secondary screens, total RNA was extracted from 96-well cultured cells using RNeasy 96 kit (Qiagen #74181) following the manufacturer's protocol using spin technology. Then a one-step qRT-PCR amplification was performed using QuantiFast SYBR Green RT-PCR kit (Qiagen #204154) and was carried out in a 10 μl reaction which consisted of 2 μl RNA, 0.5 μM each of primers (Rat TXNIP 5′ primer: […] (SEQ ID NO:1) and Rat TXNIP 3′ primer: […] (SEQ ID NO:2); Or Rat 18S rRNA 5′ primer: […] (SEQ ID NO:3) and Rat 18S rRNA 3′ primer: […]) (SEQ ID NO:4), 5 μl 2×SYBR Green Master Mix, 0.1 μl 10× QuantiFast RT Mix. The SYBR Green assay was performed using a LightCycler 480 II (Roche Applied Science) with an initial incubation at 50° C. for 10 min for RT followed by denaturation at 95° C. for 5 min. Forty cycles of amplification were performed using a thermal cycling profile of 95° C. for 10s, 60° C. for 30 s. Subsequently, a melting curve was recorded by holding at 95° C. for 60 s, cooling to 60° C. for 60 s, and then heating at 0.11° C./s up to 95° C. The data was collected and analyzed using the LightCycler 480 Software Release 1.5.0 SP3. The relative amount of TXNIP mRNA was normalized to 18 s rRNA level as a housekeeping gene, and the data was analyzed according to the 2^−ΔΔCT method (1). The transformed data was expressed as % inhibition and compound IC50 calculated by a 4-parameter logistic fit of the data using GraphPad Prism 7.

[1] = INS-1 cell viability (Cell Titer-Glo, ATP); type: cell-based, Rat; conditions: rat, INS-1 cells, 72 hrs treatment
Procedure: INS-1 cell viability was determined based on quantification of ATP using Cell Titer-Glo Luminescent Cell Viability Assay kit (Promega #G7572), which indicates the presence of metabolically active cells. Briefly, INS-1 cells were seeded into 96-well plates at a cell density of 4.5×10^4 and 3.5×10^4 cells per well and incubated overnight at 37° C. with 5% CO2. On the following day, cells were treated with compounds for 24 hrs and 72 hrs respectively. Cell Titer-Glo reagent was added to the cells and Luminescence was acquired on Synergy 4 Reader ([…]).

For `CS(=O)(=O)NCC1CCCN(c2ncnc3ccc(C(=O)O)cc23)C1` (stereo not drawn) [Compound 19, 4-(3-(methylsulfonamidomethyl)piperidin-1-yl)quinazoline-6-carboxylic acid], the inhibition at 1.5 µM (TXNIP) was 0%, the inhibition at 12.5 µM (TXNIP) was 5% and the CC50 at 72 h [1] was greater than 100 µM.
Compound `CS(=O)(=O)NC1CCCN(c2ncnc3cc(C#N)c(F)cc23)C1` (stereo not drawn) [Compound 36, N-(1-(7-cyano-6-fluoroquinazolin-4-yl)piperidin-3-yl)methanesulfonamide] has an inhibition at 1.5 µM (TXNIP) of 0%, an inhibition at 12.5 µM (TXNIP) of 34% and a CC50 at 72 h [1] of 35 µM.
In the case of `CS(=O)(=O)NC1CCCN(c2ncnc3cc(F)ccc23)C1` (stereo not drawn) [Compound 32, N-(1-(7-fluoroquinazolin-4-yl)piperidin-3-yl)methanesulfonamide], the inhibition at 1.5 µM (TXNIP) was 21%, the inhibition at 12.5 µM (TXNIP) was 62% and the CC50 at 72 h [1] was 65 µM.
`O=S(=O)(NCC1CCCN(c2ncnc3ccc(F)cc23)C1)C1CC1` (stereo not drawn) [Compound 58, N-((1-(6-fluoroquinazolin-4-yl)piperidin-3-yl)methyl)cyclopropanesulfonamide] gave an inhibition at 1.5 µM (TXNIP) of 15%, an inhibition at 12.5 µM (TXNIP) of 65% and a CC50 at 72 h [1] of 57 µM.
With `CC(C)Nc1nc(N2CCCC(CNS(C)(=O)=O)C2)c2ccccc2n1` (stereo not drawn) [Compound 16, N-((1-(2-(isopropylamino)quinazolin-4-yl)piperidin-3-yl)methyl)methanesulfonamide] the inhibition at 1.5 µM (TXNIP) was 0%, the inhibition at 12.5 µM (TXNIP) was 33% and the CC50 at 72 h [1] was greater than 100 µM.
With `COc1ccc2ncnc(N3CCCC(CNS(C)(=O)=O)C3)c2c1` (stereo not drawn) [Compound 5, N-((1-(6-methoxyquinazolin-4-yl)piperidin-3-yl)methyl)methanesulfonamide] the inhibition at 1.5 µM (TXNIP) was 30%, the inhibition at 12.5 µM (TXNIP) was 58% and the CC50 at 72 h [1] was greater than 100 µM.
Work on `CC(C)c1nc(N2CCCC(CNS(C)(=O)=O)C2)c2ccccc2n1` (stereo not drawn) [Compound 15, N-((1-(2-isopropylquinazolin-4-yl)piperidin-3-yl)methyl)methanesulfonamide] yielded an inhibition at 1.5 µM (TXNIP) of 0%, an inhibition at 12.5 µM (TXNIP) of 20% and a CC50 at 72 h [1] of 73 µM.
For `CS(=O)(=O)NCC1CCCN(c2ncnc3cc(O)c(C(F)(F)F)cc23)C1` (stereo not drawn) [Compound 63, N-((1-(7-hydroxy-6-(trifluoromethyl)quinazolin-4-yl)piperidin-3-yl)methyl)methanesulfonamide], the inhibition at 1.5 µM (TXNIP) was 10%, the inhibition at 12.5 µM (TXNIP) was 5% and the CC50 at 72 h [1] was greater than 100 µM.
With `CS(=O)(=O)NCC1CCCN(c2ncnc3ccc(-c4ncco4)cc23)C1` (stereo not drawn) [Compound 26, N-((1-(6-(oxazol-2-yl)quinazolin-4-yl)piperidin-3-yl)methyl)methanesulfonamide] the inhibition at 1.5 µM (TXNIP) was 2%, the inhibition at 12.5 µM (TXNIP) was 28% and the CC50 at 72 h [1] was greater than 100 µM.
Work on `CS(=O)(=O)NCC1CCCN(c2nc(O)nc3ccc(C(F)(F)F)cc23)C1` (stereo not drawn) [Compound 62, N-((1-(2-hydroxy-6-(trifluoromethyl)quinazolin-4-yl)piperidin-3-yl)methyl)methanesulfonamide] yielded an inhibition at 1.5 µM (TXNIP) of 20%, an inhibition at 12.5 µM (TXNIP) of 20% and a CC50 at 72 h [1] greater than 100 µM.
For `CS(=O)(=O)NCC1CCCN(c2ncnc3cc(F)c(F)cc23)C1` (stereo not drawn) [Compound 7, N-((1-(6,7-difluoroquinazolin-4-yl)piperidin-3-l)methyl)methanesulfonamide], the inhibition at 1.5 µM (TXNIP) was 40%, the inhibition at 12.5 µM (TXNIP) was 54% and the CC50 at 72 h [1] was greater than 100 µM.
Work on `CS(=O)(=O)NCC1CN(c2ncnc3ccc(F)cc23)CCO1` (stereo not drawn) [Compound 46, N-((4-(6-fluoroquinazolin-4-yl)morpholin-2-yl)methyl)methanesulfonamide] yielded an inhibition at 1.5 µM (TXNIP) of 0%, an inhibition at 12.5 µM (TXNIP) of 55% and a CC50 at 72 h [1] greater than 100 µM.
For `CS(=O)(=O)NCC1CCN(c2ncnc3ccc(F)cc23)C1` (stereo not drawn) [Compound 51, N-((1-(6-fluoroquinazolin-4-yl)pyrrolidin-3-yl)methyl)methanesulfonamide], the inhibition at 1.5 µM (TXNIP) was 18%, the inhibition at 12.5 µM (TXNIP) was 20% and the CC50 at 72 h [1] was greater than 100 µM.
For `COc1ccc2ncnc(N3CCCC(CN(C(C)C)S(=O)(=O)c4ccccc4)C3)c2c1` (stereo not drawn) [Compound 41, N-isopropyl-N-((1-(6-methoxyquinazolin-4-yl)piperidin-3-yl)methyl)benzene-sulfonamide], the inhibition at 1.5 µM (TXNIP) was 36%, the inhibition at 12.5 µM (TXNIP) was 65% and the CC50 at 72 h [1] was 7 µM.
With `O=S(=O)(NCC1CCCN(c2ncnc3ccc(F)cc23)C1)N1CCOCC1` (stereo not drawn) [Compound 60, N-((1-(6-fluoroquinazolin-4-yl)piperidin-3-yl)methyl)morpholine-4-sulfonamide] the inhibition at 1.5 µM (TXNIP) was 32%, the inhibition at 12.5 µM (TXNIP) was 56% and the CC50 at 72 h [1] was 16 µM.
With `CS(=O)(=O)NCC1CCCN(c2ncnc3ccc(C#N)cc23)C1` (stereo not drawn) [Compound 13, N-((1-(6-cyanoquinazolin-4-yl)piperidin-3-yl)methyl)methanesulfonamide] the inhibition at 1.5 µM (TXNIP) was 41%, the inhibition at 12.5 µM (TXNIP) was 1% and the CC50 at 72 h [1] was 42 µM.
For `CS(=O)(=O)NCC1(O)CCCN(c2ncnc3cc(F)c(C#N)cc23)C1` (stereo not drawn) [Compound 49, N-((1-(6-cyano-7-fluoroquinazolin-4-yl)-3-hydroxypiperidin-3-yl)methyl)methanesulfonamide], the inhibition at 1.5 µM (TXNIP) was 2%, the inhibition at 12.5 µM (TXNIP) was 2% and the CC50 at 72 h [1] was greater than 100 µM.
Compound `CS(=O)(=O)NC1CCCN(c2ncnc3ccc(F)cc23)C1` (stereo not drawn) [Compound 34, N-(1-(6-fluoroquinazolin-4-yl)piperidin-3-yl)methanesulfonamide] has an inhibition at 1.5 µM (TXNIP) of 56%, an inhibition at 12.5 µM (TXNIP) of 61% and a CC50 at 72 h [1] of 33 µM.
For `CS(=O)(=O)NCC1CCCN(c2ncnc3cc(C(F)(F)F)ccc23)C1` (stereo not drawn) [Compound 12, N-((1-(7-(trifluoromethyl)quinazolin-4-yl)piperidin-3-yl)methyl)methanesulfonamide], the inhibition at 1.5 µM (TXNIP) was 0%, the inhibition at 12.5 µM (TXNIP) was 13% and the CC50 at 72 h [1] was greater than 100 µM.
Work on `O=S(=O)(NCC1CCCN(c2ncnc3ccc(C(F)(F)F)cc23)C1)c1ccccc1` (stereo not drawn) [Compound 54, N-((1-(6-(trifluoromethyl)quinazolin-4-yl)piperidin-3-yl)methyl)benzenesulfonamide] yielded an inhibition at 1.5 µM (TXNIP) of 19%, an inhibition at 12.5 µM (TXNIP) of 53% and a CC50 at 72 h [1] of 17 µM.
Compound `CS(=O)(=O)NCC1CCCN(c2ncnc3cccc(Cl)c23)C1` (stereo not drawn) [Compound 6, N-((1-(5-chloroquinazolin-4-yl)piperidin-3-yl)methyl)methanesulfonamide] has an inhibition at 1.5 µM (TXNIP) of 29%, an inhibition at 12.5 µM (TXNIP) of 43% and a CC50 at 72 h [1] greater than 100 µM.
Compound `CS(=O)(=O)NC1CCCN(c2ncnc3ccc(Cl)cc23)C1` (stereo not drawn) [Compound 35, N-(1-(6-chloroquinazolin-4-yl)piperidin-3-yl)methanesulfonamide] has an inhibition at 1.5 µM (TXNIP) of 38%, an inhibition at 12.5 µM (TXNIP) of 64% and a CC50 at 72 h [1] of 41 µM.
In the case of `CC(C)N(CC1CCCN(c2ncnc3ccc(F)cc23)C1)S(=O)(=O)c1ccccc1` (stereo not drawn) [Compound 42, N-((1-(6-fluoroquinazolin-4-yl)piperidin-3-yl)methyl)-N-isopropylbenzenesulfonamide], the inhibition at 1.5 µM (TXNIP) was 32%, the inhibition at 12.5 µM (TXNIP) was 30% and the CC50 at 72 h [1] was 4 µM.
`CC1(CNS(C)(=O)=O)CCCN(c2ncnc3cc(F)c(C#N)cc23)C1` (stereo not drawn) [Compound 48] showed an inhibition at 1.5 µM (TXNIP) of 3%, an inhibition at 12.5 µM (TXNIP) of 26% and a CC50 at 72 h [1] greater than 100 µM.
For `O=S(=O)(NCC1CCCN(c2ncnc3ccc(C(F)(F)F)cc23)C1)c1ccc(Cl)cc1` (stereo not drawn) [Compound 56, 4-chloro-N-((1-(6-(trifluoromethyl)quinazolin-4-yl)piperidin-3-yl)methyl)benzenesulfonamide], the inhibition at 1.5 µM (TXNIP) was 19%, the inhibition at 12.5 µM (TXNIP) was 30% and the CC50 at 72 h [1] was 17 µM.
With `CS(=O)(=O)NCC1CCCN(c2ncnc3cccc(F)c23)C1` (stereo not drawn) [Compound 2, N-((1-(5-fluoroquinazolin-4-yl)piperidin-3-yl)methyl)methanesulfonamide] the inhibition at 1.5 µM (TXNIP) was 13%, the inhibition at 12.5 µM (TXNIP) was 61% and the CC50 at 72 h [1] was greater than 100 µM.
